Laboratory results published in patent US5536723A, “S-nitroso derivatives of hydrazinoacetic acids, 1-[(acylthio and (mercapto)-1-oxoalkyl]-1,2,34-Tetrahydroquinoline-2-carboxylic acids and alanyl prolines and isoquinolines” (Brigham & Women's Hospital, priority 1994, dated 1996).
Entries after “also recorded” stand apart in the source; their conditions may differ. Like-named read-outs stand apart in the source and are kept apart here.

Experiments:
[1] = spontaneous hydrolysis (half-life of the S-nitroso bond) in physiologic buffer (PSS); format: physicochemical; conditions: 37° C.
Procedure: FIG. 1 depicts a graph showing the spontaneous hydrolysis of S-nitrosocaptopril in PBS. Each point represents the mean ±SEM of four experiments performed in duplicate.
(§1) The half-life of the S-nitroso bond of S-nitrosocaptopril in physiologic buffer and in plasma was determined by incubating purified S-nitrosocaptopril in aerated PSS or in PPP, the results of which are shown in FIG. 1.

[2] = decay of the S-nitroso bond in plasma (PPP); format: in vitro ADME; conditions: room temperature
Procedure: as §1

bovine femoral artery = test: relaxation of isolated bovine femoral artery rings contracted with norepinephrine; conditions: for IC50: Bos taurus
Procedure: FIG. 2 depicts a graph showing the effect of S-nitrosocaptopril on the contraction of bovine femoral arteries to norepinephrine.
(§2) Blood Vessel Preparation. Bovine coronary or femoral arteries were obtained from an abattoir immediately after sacrifice of two- to four-week-old calves. Immediately after removal, the vessel was placed in ice-cold physiologic salt solution (PSS) containing 118.3 mM NaCl, 4.7 mM KCl, 2.5 mM CaCl2, 1.2 mM MgSO4, 1.2 mM KH2 PO4, 25.0 mM NaHCO3, 11.1 mM glucose, and 0.026 mM calcium disodium (ethylenedinitrilo)-tetraacetate. The vessels were then cleaned of adventitial tissue and cut into rings of approximately 5 mm lengths. When called for by the protocol, endothelium was removed from a ring by gently rubbing the luminal surface with a watchmaker's forceps. Vascular rings with intact endothelium were then suspended in organ chambers containing 25 ml of PSS at 37° aerated with 95% O2 -5% CO2. The rings were connected to force transducers (Grass FT03C, Quincy, Mass.) and changes in isometric force recorded continuously (Grass Polygraph Model 79B) over a period of 90 minutes. The optimal length-tension relationship was determined for each ring by observing the response to 10^-6 M norepinephrine after increments in tension of 0.5 gm. The functional integrity of the endothelium was assessed by contracting the vessel with 10^-6 M norepinephrine and then observing the response to 3×10^-7 M acetylcholine chloride.
Vascular ring segments with intact endothelium were […] contracted with a concentration of norepinephrine inducing a half-maximal response. After a stable contraction had been achieved, the tissue was exposed to increasing concentrations of S-nitrosocaptopril in cumulative half-log increments. […] The apparent IC50 is approximately 1 μM.

ACE = target: T1, ACE (Rattus norvegicus, UniProt P47820); test: ACE inhibition, rat lung source of ACE; format: biochemical; conditions: 10^-10 to 10^-8
T1 sequence (P47820 36-1313): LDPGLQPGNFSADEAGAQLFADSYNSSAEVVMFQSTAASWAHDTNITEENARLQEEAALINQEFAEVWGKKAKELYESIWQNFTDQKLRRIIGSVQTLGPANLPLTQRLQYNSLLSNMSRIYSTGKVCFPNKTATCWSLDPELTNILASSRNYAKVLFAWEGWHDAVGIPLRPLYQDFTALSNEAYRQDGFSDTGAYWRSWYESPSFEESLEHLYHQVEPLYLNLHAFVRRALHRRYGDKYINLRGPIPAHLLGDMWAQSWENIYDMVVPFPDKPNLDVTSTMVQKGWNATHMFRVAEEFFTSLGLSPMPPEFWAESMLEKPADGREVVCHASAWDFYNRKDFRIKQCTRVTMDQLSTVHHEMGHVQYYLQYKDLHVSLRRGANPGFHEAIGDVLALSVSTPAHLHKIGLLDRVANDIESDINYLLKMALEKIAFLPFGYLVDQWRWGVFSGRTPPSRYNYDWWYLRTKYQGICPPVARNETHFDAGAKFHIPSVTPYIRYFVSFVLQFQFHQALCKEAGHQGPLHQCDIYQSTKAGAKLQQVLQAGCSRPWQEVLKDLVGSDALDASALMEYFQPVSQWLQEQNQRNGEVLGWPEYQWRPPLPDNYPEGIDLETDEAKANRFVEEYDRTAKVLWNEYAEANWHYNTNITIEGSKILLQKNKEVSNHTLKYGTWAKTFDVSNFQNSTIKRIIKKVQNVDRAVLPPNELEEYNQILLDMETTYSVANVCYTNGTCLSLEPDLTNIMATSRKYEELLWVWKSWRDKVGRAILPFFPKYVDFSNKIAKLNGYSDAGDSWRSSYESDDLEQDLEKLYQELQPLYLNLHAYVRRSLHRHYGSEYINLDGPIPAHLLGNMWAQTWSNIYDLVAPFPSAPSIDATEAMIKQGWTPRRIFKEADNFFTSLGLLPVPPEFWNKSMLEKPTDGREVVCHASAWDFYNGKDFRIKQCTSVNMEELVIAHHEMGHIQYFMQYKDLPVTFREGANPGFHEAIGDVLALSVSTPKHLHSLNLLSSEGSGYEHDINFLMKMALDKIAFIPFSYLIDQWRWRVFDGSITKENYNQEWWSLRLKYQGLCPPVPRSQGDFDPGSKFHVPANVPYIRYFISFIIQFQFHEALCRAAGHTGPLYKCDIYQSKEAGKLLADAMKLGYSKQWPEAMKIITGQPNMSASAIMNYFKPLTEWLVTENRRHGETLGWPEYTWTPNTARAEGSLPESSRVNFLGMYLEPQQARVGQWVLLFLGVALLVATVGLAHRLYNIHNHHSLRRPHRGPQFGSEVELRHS
Procedure: Under the conditions of this assay (0.1M potassium phosphate, pH 8.3, 0.3M NaCl at 37°), ACE preparations generated 6.32 nmoles of product/mg protein/min.

[3] = arterial pressure in the anesthetized rabbit; format: in vivo; conditions: 1 mM solution infused in an ear vein, 0.02 to 2.2 ml/min
Procedure: A 1 mM solution of S-nitrosocaptopril was infused in an ear vein of the rabbit at rates from 0.02 to 2.2 ml/min and the phasic and mean arterial pressure recorded in the femoral artery.

[4] = test system: cGMP (and cAMP) in platelets; test: cGMP (and cAMP) levels in platelets; format: cell-based; conditions: 10^-5 M, one minute
Procedure: Since the postulated mechanism by which the nitrosothiol moiety of S-nitrosocaptopril directly relaxes vascular smooth muscle and attenuates the platelet aggregation response is believed to be through activation of soluble guanylate cyclase, cGMP (and cAMP) levels were measured in vessel ring segments and in platelets incubated with 10^-5 M S-nitrosocaptopril.

[5] = test system: bovine femoral artery, response to bradykinin; test: response of the bovine femoral artery to bradykinin; conditions: 10^-6 M
Procedure: as §2
In the bovine femoral artery contracted with a concentration of norepinephrine inducing a half-maximal response, bradykinin induced a biphasic response.

C[C@H](CSN=O)C(=O)N1CCC[C@H]1C(=O)O [S-nitrosocaptopril]
estimated half-life of the S-nitroso bond (thiol-bound, mercurous-displaceable nitrite) [1]: approximately 2.8 hours | estimated half-life of the S-nitroso bond [2]: ~2.5 h | IC50 (bovine femoral artery; compared with coronary artery, p<0.05, n=6, read-out: IC50 (relaxation, femoral artery)): 5.6 µM | IC50 (bovine femoral artery; norepinephrine-contracted, intact endothelium, FIG. 2, read-out: apparent IC50 (relaxation)): ~1 µM | potency of vasodilation relative to S-nitroso-N-acetylpenicillamine (literature value in the bovine coronary artery) (bovine femoral artery; compared with Ignarro et al.): approximately one order of magnitude weaker | relaxation response (in words) (bovine femoral artery; norepinephrine-contracted, FIG. 2): induced dose-dependant relaxation; also recorded: progressive relaxation was observed | ACE inhibition (in words, FIG. 6) (ACE): almost complete inhibition of ACE | effect on blood pressure (in words) [3]: clear decrease in blood pressure | cAMP levels, platelets (in words) [4]: did not change from basal levels | cGMP level, platelets [4]: 5.44 pmoles/10^8 platelets | fold induction at 10 µM ([4]; Platelet, 1 min, read-out: increase of cGMP levels, platelets): 11.3 | effect on the response to bradykinin (in words) [5]: Neither response to bradykinin was affected
